The values below come from PMC5288202, “Simultaneous inhibition of Vps34 kinase would enhance PI3Kδ inhibitor cytotoxicity in the B-cell malignancies” (Oncotarget, 2016).

As a reminder, the GI50 is the concentration at which growth is held to half of that of the control. As usually defined, the EC50 is the concentration that produces a half-maximal response. A word on the IC50: it is the concentration that gives 50% inhibition.

For data set [1], the system named is pERK in MEC-2 cells. The experiment in a line: pERK immunoblotting. Format: cell-based. An excerpt:
The following antibodies were purchased from Cell Signaling Technology: Akt(#4691), Phospho-Akt(Thr308)(#4056), Phospho-Akt(Ser473)(#4060), GAPDH, GSK-3β(#9315), Phospho-GSK-3β(#9323), FoxO1(#2880), Phospho-FoxO1 (Thr24)/FoxO3a(Thr32)/FoxO4(Thr28)(#2599), PRAS40(#2691), Phospho-PRAS40 (Thr246)(#2997), 4E-BP1(#9644), p70 S6K(#2708), Phospho-p70 S6K (Thr389)(#9234). SQSTM1/p62 (D5E2)(#8025), LC3B(#12513). PARP(#9532), Caspase-3(#9665), Phospho-p44/42 MAPK (Erk1/2) (Thr202/Tyr204)(#4377), p44/42 MAPK (Erk1/2) (#4695), Phospho-NF-ΚB P65 (Ser 536)(#3033), NF-ΚB P65(#4764). Lysophosphatidic Acid (#sc-201053, Santa Cruz), Recombinant Human PDGF-BB (#220-BB, R&D), Recombinant Human C5a (Peprotech, #300-70), goat anti-IgM (#5C07615, Meridian). LC3B antibody (#3868, CST). Tubulin antibody (#8035, Santa Cruz). EEA1 antibody (#610456, BD Bioscience) and LAMP1 antibody (#24170, Abcam). Secondary antibodies, Alexa488-anti-mouse, Alexa594-anti-rabbit and Prolong gold mounting medium with DAPI were purchased from Invitrogen.

The subject of data set [2] is HL-60. The experiment in a line: Anti-proliferative effect. The settings on record: Homo sapiens, HL-60, read-out: GI50 HL-60. Format: cell-based.
Data set [3] has as its system MV4-11. The experiment in a line: Colony formation (colonogenic assay). The settings on record: Homo sapiens, AML. The data set is classed as cell-based.
Data set [4] deals with OCI-AML-2. Nature of the data set: Autophagy markers LC3BII and p62 (immunoblotting). The data set is classed as cell-based. A general note: Immunoblotting shows a protein as a band on a membrane.
Data set [5] relates to MV4-11 cell-inoculated xenograft. The experiment in a line: MV4-11 xenograft tumor model. Format: in vivo. The source says:
Six week old female nu/nu mice were purchased from the Shanghai Experimental Center, Chinese Science Academy (Shanghai). All animals were maintained in a specific pathogen-free facility and used according to the animal care regulations of Hefei Institutes of Physical Science Chinese Academy of Sciences, and all efforts were made to minimize animal suffering. To obtain an […] in the mice, cells were harvested during exponential growth. 7 million MV4-11 cells in PBS were suspended in a 1:1 mixture with Matrigel (BD Biosciences) and injected into the subcutaneous space on the right flank of nu/nu mice. Daily intraperitoneal injection was initiated when MV4-11 tumors had reached a size of 200 to 400 mm^3. Animals were then randomized into treatment groups of 5 mice each for efficacy studies. […] Body weight and tumor growth were measured daily after PI3KD/V-IN-01 treatment. Tumor volumes were calculated as follows: tumor volume (mm^3)=[(W^2× L)/2] in which width (W) is defined as the smaller of the two measurements and length(L) is defined as the larger of the two measurements.
TUNEL staining was performed using the POD in Situ Cell Death Detection kit (Roche, USA). Sections were deparaffinized in xylene, rehydrated in decreasing concentrations of ethanol, then treated by nuclease free Proteinase K for 15 min at room temperature before endogenous peroxidase was blocked in 3% H2O2 in methanol. Terminal deoxynucleotidyl transferase (TdT) in reaction buffer was applied to sections for 1h at 37°C. Following washes, the slides were covered by converter-POD solution for 30 min at 37°C. Apoptotic cells were detected after incubation in the 3, 3′-diaminobenzidine (DAB) chromogen (Beyotime Biotechnology) for approximately 8 min and slides were counterstained with hematoxylin.
Incubations with primary antibodies lasted overnight at 4°C. The secondary detection system was used to visualize antibody binding. Staining was developed with DAB; slides were counterstained with hematoxylin, dehydrated and mounted.

Data set [6] relates to LC3B puncta in HeLa cells. Nature of the data set: Immunofluorescence of LC3B puncta. The data set is classed as cell-based. The following applies: 16 hours. As to the method: HeLa cells were treated with different concentrations of inhibitors for 16 hours. For all immunofluorescence experiments, cells were fixed in -20 °C methanol for 5 minutes or 3.7% (v/v) formaldehyde in phosphate-buffered saline (PBS) for 20 minutes. For LC3B staining, cells were fixed in -20 °C methanol. For EEA1 and LAMP1 staining, cells were fixed in PBS+ formaldehyde. Cells were then permeabilized with TBSTx (0.1% Triton X-100), blocked in AbDil (TBSTx + 2% BSA + 0.1% NaN3), and probed with primary and secondary antibodies diluted in AbDil. Cells were rinsed thoroughly with TBSTx and mounted by anti-fade prolong Gold with DAPI. Images were taken using a Leica DMI4000B fluorescent microscope. All experiments were repeated at least three times). […] Cells were lysed in lysis buffer. P62, LC3B, and GAPDH antibodies were used for immunoblotting.

The subject of data set [7] is MEC-2. The experiment in a line: Cell cycle analysis. The data set is classed as cell-based. The settings on record: MEC-2, 48 h treatment.
The test system of data set [8] is MEC-2. The experiment in a line: Autophagy markers LC3BII and p62 (immunoblotting). The data set is classed as cell-based.
In data set [9] the test system is MV4-11. The experiment in a line: Autophagy markers LC3BII and p62 (immunoblotting). The data set is classed as cell-based.
The test system of data set [10] is Hs 505T. Nature of the data set: Anti-proliferative effect. The data set is classed as cell-based. The following applies: Homo sapiens, read-out: GI50 Hs 505T.
Data set [11] deals with MEC-2. The experiment in a line: Induction of apoptosis (PARP cleavage). The data set is classed as cell-based. The settings on record: MEC-2, evident at 3 μM to 10 μM.
For data set [12], the target named is T1, VPS34 (Homo sapiens, UniProt Q8NEB9).
T1 construct: purchased Invitrogen
T1 sequence (Q8NEB9 whole entry): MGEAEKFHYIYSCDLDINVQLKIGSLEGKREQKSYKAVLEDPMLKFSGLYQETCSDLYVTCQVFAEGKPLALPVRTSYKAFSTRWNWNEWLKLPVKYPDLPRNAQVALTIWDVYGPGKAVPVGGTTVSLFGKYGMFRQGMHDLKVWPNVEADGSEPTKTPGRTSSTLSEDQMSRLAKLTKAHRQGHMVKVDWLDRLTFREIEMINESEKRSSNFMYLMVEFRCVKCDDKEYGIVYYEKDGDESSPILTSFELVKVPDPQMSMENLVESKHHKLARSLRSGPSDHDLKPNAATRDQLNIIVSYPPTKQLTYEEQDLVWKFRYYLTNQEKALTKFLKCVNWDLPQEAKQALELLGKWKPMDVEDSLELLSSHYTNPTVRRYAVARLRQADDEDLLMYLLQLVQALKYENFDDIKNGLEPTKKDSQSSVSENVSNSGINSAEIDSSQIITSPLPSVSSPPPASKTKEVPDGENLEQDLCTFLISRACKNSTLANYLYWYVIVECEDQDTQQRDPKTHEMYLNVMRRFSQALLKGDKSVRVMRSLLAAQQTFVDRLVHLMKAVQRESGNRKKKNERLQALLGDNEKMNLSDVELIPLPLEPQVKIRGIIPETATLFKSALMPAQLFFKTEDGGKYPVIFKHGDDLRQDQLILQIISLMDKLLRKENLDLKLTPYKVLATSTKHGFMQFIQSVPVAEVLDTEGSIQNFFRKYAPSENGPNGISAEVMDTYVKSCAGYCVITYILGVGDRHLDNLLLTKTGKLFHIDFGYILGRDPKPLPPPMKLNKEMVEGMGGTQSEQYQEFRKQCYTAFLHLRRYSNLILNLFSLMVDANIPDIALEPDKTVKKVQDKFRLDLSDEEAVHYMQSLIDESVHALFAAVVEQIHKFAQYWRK
Nature of the data set: ADP-Glo biochemical assay. The settings on record: purified protein, 50 μM ATP, read-out: IC50 against VPS34. (ADP-Glo first removes unused ATP, then detects ADP through luciferase.)
Method: The activities of PI3Kα, PI3Kβ, PI3Kδ, PI3Kγ, PI3KC2α, PI3KC2β, Vps34, PI4Kα and PI4Kβ were determined by using ADP-Glo assay, a fluorescence-based immunoassay that measures kinase activity in terms of the amount of ADP produced. A kinase titration was performed to determine the concentration. The amount of recombinant kinases was optimized to keep the reaction velocity within the linear range, to obtain an adequate difference between the resulting signals of sample in/out the presence of enzyme. The optimized enzyme concentrations for evaluating the inhibitory activities of compounds were chosen as follows: 0.16 μg/ml, 6.0 μg/ml, 1.0 μg/ml, 5.0 μg/ml, 5.0 μg/ml, 10.0 μg/ml, 1.2 μg/ml, 1.2 μg/ml and 1.0 μg/ml for PI3Kα, PI3Kβ, PI3Kδ, PI3Kγ, PI3KC2α, PI3KC2β, Vps34, PI4Kα and PI4Kβ, respectively. The ATP concentration was optimized, 10 μM ATP for PI3Kα and PI3Kβ, and 50 μM ATP for detection of the other seven kinases. The PI3Kα, PI3Kβ, PI3Kδ, PI3Kγ, PI3KC2α, PI3KC2β kinase reactions were carried out in 10 μl volume in a 384-well plate in the kinase reaction buffer containing 50 mM Hepes pH 7.5, 3 mM MgCl2, 1 mM EGTA, 1 mM NaCl, 0.03% CHAPS and 2 mM DTT. […] 10 μl kinase detection reagent was dded and incubated for 30 min at room temperature, before the luminescence signal was read with an envision PerkinElmer plate reader.

For data set [13], the system named is HT. The experiment in a line: Anti-proliferative effect. The data set is classed as cell-based. The settings on record: Homo sapiens, read-out: GI50 HT.
Data set [14] deals with OCI-AML-2. Nature of the data set: Cell cycle analysis. The data set is classed as cell-based. The settings on record: OCI-AML-2, 48 h treatment.
Data set [15] concerns Namalwa. The experiment in a line: Anti-proliferative effect. The settings on record: read-out: GI50 Namalwa. The data set is classed as cell-based.
For data set [16], the system named is NB4. Nature of the data set: Anti-proliferative effect. The data set is classed as cell-based. The following applies: Homo sapiens, read-out: GI50 NB4.
Data set [17] relates to OCI-AML-3. Nature of the data set: Anti-proliferative effect. The data set is classed as cell-based. The following applies: Homo sapiens, AML(FLT3wt).
The mark [18] stands for this setting: immunohistochemistry, MV4-11 xenograft.

Take `Cc1nc(NC(=O)CN)sc1-c1cnc(Cl)c(NS(=O)(=O)c2ccc(C(C)(C)C)cc2)c1` [PI3KD/V-IN-01, 2-amino-N-(5-(5-(4-tert-butylphenylsulfonamido)-6-chloropyridin-3-yl)-4-methylthiazol-2-yl)acetamide]: the “effect on pERK” value in data set [1] was “significantly inhibited”. In addition, the GI50 in data set [2] is 2700 nM; in data set [10] it was > 10000 nM; in [13], 1900 nM; in data set [15], 1300 nM; in [16] it was 1400 nM; in data set [17], 2400 nM. The molecule further returned an EC50 in data set [3] of 124 nM. Moreover, the “levels of the autophagy markers, LC3BII and p62” value in data set [4] was “concentration-dependent increase”; in [8], “concentration-dependent increase”; in data set [9], “not observed”. In addition, the “TGI (Tumor growth inhibition)” value in [5] (50 mg/kg/day administered intraperitoneal, MV4-11 xenograft mice) is 86.8%. The “effect on body weight” value in data set [5] (50 mg/kg/day, MV4-11 xenograft mice) is recorded as “no apparent effects on body weight”. In addition, in data set [5] (setting [18]), the “apoptosis in tumor tissue (TUNEL stain)” value is “dose-dependently increased”. In data set [5] (setting [18]), the “cell proliferation in tumor tissue (Ki67 stain)” value is “dose-dependently inhibited”. Further, the “Effect on LC3B puncta” value in [6] is “increased LC3B puncta”. Also, the cell cycle progression result in data set [7] is given as “arrested in the G0/G1 phase”; in data set [14], “no apparent cell cycle inhibition”. The induction of apoptosis result in data set [11] was “only a modest induction of apoptosis”. The IC50 in [12] amounted to 19 nM.
